We go through 54 compounds from patent US9351944B1, “Malodor eliminating compositions” (TAKASAGO INTERNATIONAL CORPORATION, priority 2008, dated 2016).

Assay [1] can be described thus: Methyl mercaptan chemical suppression by Group A and Group B compounds (GC-PFPD). The note with it: test material 200 ppm, malodor material 10 ppm, room temperature 2 hours, ethanol/deionized water. Here is the method: 2 μl of 0.5%(w/v) of sodium methoxide in deionized water, 20 μl of 1% (w/v) test malodor eliminating material in ethanol, 80 μl of ethanol, and 900 μl of deionized water were added into a 2 ml GC vial, left to sit at room temperature for 2 hours, and analyzed using Multipurpose sampler-GC-PFPD (Gas Chromatography-Pulsed Flame Photometric Detector) (GC-PFPD)MPS2 (Gerstel)—GC; 6890N (Agilent)—PFPD; model 5380 (OI Analytical). As a control, ethanol was added instead of test malodor eliminating materials. The final concentration of test OE material and malodor material are 200 ppm and 10 ppmm, respectively. Malodor suppression was calculated as follows: Malodor Suppression (%)=(GC area of control sample−GC area of test_sample)/GC area of control sample×100

Assay [2] is described as follows: Propyl mercaptan chemical suppression by malodor eliminating materials (GC-PFPD). The note with it: OE material 0.2%, malodor material 10 ppm, room temperature 2 hours, triplicate. As to the method:
(§1) The selected OE materials were tested for propyl, allyl, and furfuryl mercaptan suppression. 100 μl of 0.01%(w/v) of test malodor material in ethanol, 2 μl of neat flavor oil and 900 μl of deionized water were added into a 4 ml vial and left to sit at room temperature for 2 hours. As a control, ethanol was added instead of test flavor materials. The final concentration of test OE material and malodor material are 0.2% and 10 ppm, respectively. 3 ml of ethanol was added into the resulting vial and the thiol level was analyzed using GC-PFPD. Each material was tested in triplicate. Malodor suppression was calculated as described in the example 1 above.

The nature of assay [3]: Allyl mercaptan chemical suppression by malodor eliminating materials (GC-PFPD). The settings on record: OE material 0.2%, malodor material 10 ppm, room temperature 2 hours, triplicate. As to the method:
as §1

The nature of assay [4]: Furfuryl mercaptan chemical suppression by malodor eliminating materials (GC-PFPD). The note with it: OE material 0.2%, malodor material 10 ppm, room temperature 2 hours, triplicate. As to the method: as §1
The nature of assay [5]: Suppression of methyl mercaptan (Example 12, GC-PFPD). The note with it: test material 0.2%, malodor material 10 ppm, room temperature 2 hours, triplicate. As to the method:
100 μl of 0.01%(w/v) of test malodor material in ethanol, 2 μl of neat flavor oil and 900 μl of deionized water were added into a 4 ml vial and left to sit at room temperature for 2 hours. As a control, ethanol was added instead of the malodor reducing compound. The final concentration of test material and malodor material are 0.2% and 10 ppmm, respectively. 3 ml of ethanol was added into the resulting vial and the thiol level was analyzed using GC-PFPD as described above. Each material was tested in triplicate. Malodor suppression was calculated as described in the example 1 above.

A short description of assay [6]: Methyl mercaptan suppression by Group A and Group B materials alone and combined (synergistic or additive activity). The note with it: in ethanol, room temperature 2 hours; for methyl mercaptan suppression (%) A alone: Group A level 200 ppm; for methyl mercaptan suppression (%) B alone: Group B level 400 ppm. Here is the method:
The synergistic or additive activity of methyl mercaptan inhibition of malodor eliminating materials was tested. 5-40 μl of 1% (w/v) test OE materials in ethanol was placed into a 2 ml GC vial. Ethanol was added into this vial up to 1000 μl. 2 μl of 0.5%(w/v) of sodium methoxide in deionized water was added into the resulting vial, left to sit at room temperature for 2 hours, and analyzed using Multipurpose sampler-GC-PFPD. As a control, ethanol was added instead of test OE materials. Malodor suppression was calculated as described in Example 1 above.

Values joined by “and” are separate entries in the source; they are usually repeats but may differ in a detail not shown here. Identical values can stand only once. Bounds are passed on as bounds.

Take `CCCC/C=C/C=C/C=O` [NONADIENAL-TRANS-2-TRANS-4, trans-2-trans-4-nonadien-1-al]: the “methyl mercaptan suppression (%)” value in assay [1] amounted to 42%.

For `CC(=O)/C=C/C1C(C)=CCCC1(C)C` (stereo not drawn) [IONONE-ALPHA, ionone alpha], the “methyl mercaptan suppression (%)” value in assay [1] is listed as 14%; in assay [5], 50%. The “Malodor reduction (%) propyl mercaptan” value in assay [2] was <20%. For the same compound, the “Malodor reduction (%) allyl mercaptan” value in assay [3] is 43%. Further, in assay [4], the “Malodor reduction (%) furfuryl mercaptan” value came out at 46%.

`CC(C)=CCCC(C)=CC=O` [CITRAL SYN REFINED (FDO), CITRAL]: in assay [1], the “methyl mercaptan suppression (%)” value is 25%. The “methyl mercaptan suppression (%) A alone” value in assay [6] is 1% and 0%.

In the case of `CC=Cc1ccc(OC)cc1` [ANETHOL NF, anethol], the “methyl mercaptan suppression (%)” value in assay [5] is recorded as <20%.

Take `C=C(C)C1CC=C(C=O)CC1` (stereo not drawn) [PERILLA ALD]: the “methyl mercaptan suppression (%)” value in assay [1] turned out to be 12%. Besides, the “methyl mercaptan suppression (%) A alone” value in assay [6] was 16%.

In the case of ISO JASMONE, the “methyl mercaptan suppression (%)” value in assay [1] stood at 31%.

For the compound `CC(=O)/C=C/C1=C(C)CCCC1(C)C` [IONONE-BETA, ionone beta], the “methyl mercaptan suppression (%)” value was determined as 23% in assay [1] and 55% in assay [5]. In addition, the “Malodor reduction (%) propyl mercaptan” value in assay [2] was 27%. Further, the “Malodor reduction (%) allyl mercaptan” value in assay [3] is 37%. Further, the “Malodor reduction (%) furfuryl mercaptan” value in assay [4] worked out at 51%. Moreover, in assay [6], the “methyl mercaptan suppression (%) A alone” value is recorded as 71%.

Consider `CCOC(=O)C(C)CC` (stereo not drawn) [ETHYL 2-METHYLBUTYRATE, ethyl 2-methylbutyrate], for which the “methyl mercaptan suppression (%)” value in assay [5] is given as <20%.

`COC(=O)C=Cc1ccccc1` [METH CINNAMATE, methyl cinnamate]: the “methyl mercaptan suppression (%)” value in assay [1] is recorded as 36%.

In the case of `CC/C=C\CCOC(=O)CC(C)C` [HEXENYL ISO VAL, CIS-3,], the “methyl mercaptan suppression (%)” value in assay [1] worked out at 24%.

In the case of `CCC/C=C/C=O` [HEXENAL, TRANS-2,, trans-2-hexenal], the “methyl mercaptan suppression (%)” value in assay [1] was determined as 82%. Besides, in assay [6] (TRANS-2), the “methyl mercaptan suppression (%) A alone” value came out at 33%.

For the compound `CC/C=C\CC/C=C/C=O` [NONADIEN-1-AL, TRANS-2, CIS-6,], the “methyl mercaptan suppression (%)” value in assay [1] was 74%.

Turning to `CCOC(C)=O` [ETHYL ACETATE, ethyl acetate], the “methyl mercaptan suppression (%)” value in assay [5] is listed as <20%.

As for `CC/C=C\CCCCCO` [NONENOL, CIS 6], the “methyl mercaptan suppression (%)” value in assay [1] was 22%.

Consider `CC/C=C\CC1=C(C)CCC1=O` [JASMONE, CIS], for which the “methyl mercaptan suppression (%)” value in assay [1] amounted to 32%.

For `CCOC(=O)C=Cc1ccccc1` [ETH CINNNAMTE, ethyl cinnamate], the “methyl mercaptan suppression (%)” value in assay [1] amounted to 50%. In assay [6], the “methyl mercaptan suppression (%) A alone” value was 12% and 8%.

On to `CCC/C=C/COC(C)=O` [HEXENYL-TRANS-2 ACETATE], for which, in assay [1], the “methyl mercaptan suppression (%)” value is 35%.

For the compound `CC(C)c1ccc(C=O)cc1` [CUMIN ALD, cumin aldehyde], the “methyl mercaptan suppression (%) A alone” value in assay [6] is −42%.

Take `CC(C)CC=C(C=O)c1ccccc1` [METH 2-PHEN 2-HEXENAL, 5,]: the “methyl mercaptan suppression (%)” value in assay [1] was determined as 59%.

For the compound `C/C=C(\C)C(=O)OCCc1ccccc1` [PHEN ETH TIGLATE], the “methyl mercaptan suppression (%) A alone” value in assay [6] came to 4%.

Turning to `CCCCC/C(C=O)=C/c1ccccc1` [AMYL CINN ALD, ALPHA], the “methyl mercaptan suppression (%)” value in assay [1] was determined as 5%. For the same compound, the “methyl mercaptan suppression (%) A alone” value in assay [6] was −3% and −1%.

With `CCCC(=O)OCC` [ETHYL BUTYRATE, ethyl butyrate], the “methyl mercaptan suppression (%)” value in assay [5] is <20%.

With `CC(O)CO` (stereo not drawn) [PROPYLENE GLYCOL (SOLVENT), propylene glycol], in assay [6], the “methyl mercaptan suppression (%) B alone” value is −5%.

Consider `CCCCCC1CCCC(=O)O1` (stereo not drawn) [DECALACTONE DELTA], for which, in assay [5], the “methyl mercaptan suppression (%)” value is recorded as <20%.

As for `COC(=O)c1ccccc1O` [METHYL SALICYLATE EXT PURE, METHYL SALICYLATE], the “methyl mercaptan suppression (%)” value in assay [5] is listed as <20%.

As for `CC1CCC(C(C)C)C(O)C1` (stereo not drawn) [MENTHOL NATURAL, menthol], the “methyl mercaptan suppression (%)” value in assay [5] is on record as <20%.

For `CCCCCCCC(C)=O` [METHYL HEPTYL KETONE], the “methyl mercaptan suppression (%)” value in assay [5] is listed as <20%.

Take `Cc1ccc(C(C)C)c(O)c1` [THYMOL, thymol]: the “methyl mercaptan suppression (%) B alone” value in assay [6] came to 0%.

On to `O=C1CCCCCCCCCCCCCCO1` [CYCLOPENTADECANOLIDE, cyclopentadecanolide], for which the “methyl mercaptan suppression (%)” value in assay [5] was <20%.

As to `CC=Cc1ccc(O)c(OC)c1` [ISOEUGENOL, isoeugenol], in assay [1], the “methyl mercaptan suppression (%)” value worked out at 15%.

`CC(=O)c1ccccc1` [ACETOPHENONE, acetophenone]: the “methyl mercaptan suppression (%) A alone” value in assay [6] was found to be 4%.

Regarding `CCCCC/C=C/C=O` [OCTENAL TRANS-2], in assay [1], the “methyl mercaptan suppression (%)” value was found to be 82%.

Consider `CC/C=C\CCOC(=O)CC` [HEXENYL PROP, CIS-3,], for which the “methyl mercaptan suppression (%)” value in assay [1] is 32%.

With `CCCCCC=CCC(=O)OC` [METHYL-3 -NONENOATE, METHYL-3-NONENOATE], the “methyl mercaptan suppression (%)” value in assay [1] amounted to 36%. In addition, the “methyl mercaptan suppression (%) A alone” value in assay [6] is 7%.

For `C/C=C/C(=O)OCC` [ETHYL-TRANS-2 BUTENOATE, ethyl-trans-2-butenoate], the “methyl mercaptan suppression (%)” value in assay [1] is 73%. Besides, in assay [6], the “methyl mercaptan suppression (%) A alone” value is 64%.

Consider `CC(C)CCOC(=O)C=Cc1ccccc1` [ISOAMYL CINNAMATE], for which the “methyl mercaptan suppression (%)” value in assay [1] was found to be 10%.

`CCCCCCCC1CCCC(=O)O1` (stereo not drawn) [DODECALACTONE DELTA, dodecalactone delta]: the “methyl mercaptan suppression (%)” value in assay [5] is given as <20%.

Take `CCCCCCCCC/C=C/C=O` [DODECENAL, TRANS-2,]: in assay [1], the “methyl mercaptan suppression (%)” value is given as 53%.

As for `C=CC(O)CCCCC` (stereo not drawn) [OCTEN-1 3-OL], in assay [1], the “methyl mercaptan suppression (%)” value is listed as 19%.

Turning to `CCCC/C=C/C=O` [HEPTENAL-TRANS-2], the “methyl mercaptan suppression (%)” value in assay [1] stood at 82%.

`O=C/C=C/c1ccccc1` [CINN ALD, cinnamic aldehyde]: the “methyl mercaptan suppression (%)” value in assay [1] amounted to 33%; in assay [5], 26%. Further, the “Malodor reduction (%) propyl mercaptan” value in assay [2] is given as 26%. The “Malodor reduction (%) allyl mercaptan” value in assay [3] is given as <20%. Also, the “Malodor reduction (%) furfuryl mercaptan” value in assay [4] came out at 27%.

`CCCCCCC/C=C/C=O` [DECENAL, TRANS-2,]: the “methyl mercaptan suppression (%)” value in assay [1] is recorded as 90%.

In the case of `CC/C=C/C=C/C=O` [HEPTADIENAL, TRANS-2-TRANS-4], the “methyl mercaptan suppression (%)” value in assay [1] stood at 44%.

On to `CC(=O)/C=C/C=C(C)C` [METHYL HEPTADIENONE, methyl heptadienone], for which the “methyl mercaptan suppression (%) A alone” value in assay [6] was 12% and 6% and 8% and 15%.

As to `OCCc1ccccc1` [PHENYL ETHYL ALCOHOL-BETA, phenethyl alcohol beta], in assay [5], the “methyl mercaptan suppression (%)” value is reported as <20%.

Regarding `CC(C)OC(=O)C=Cc1ccccc1` [ISOPROPYL CINNAMATE], in assay [1], the “methyl mercaptan suppression (%)” value is 21%.

In the case of `CCC(=O)OCCc1ccccc1` [PHENYLETHYL PROPIONATE, phenyl ethyl propionate], the “methyl mercaptan suppression (%)” value in assay [5] was <20%.

`CCCCCC/C=C/C=O` [NONENAL, TRANS-2,]: in assay [1], the “methyl mercaptan suppression (%)” value is on record as 86%.

In the case of damascone beta [DAMASCONE, BETA], the “methyl mercaptan suppression (%)” value in assay [1] was 99%; in assay [5] it was 74%. The “Malodor reduction (%) propyl mercaptan” value in assay [2] amounted to 23%. Further, the “Malodor reduction (%) allyl mercaptan” value in assay [3] was determined as 85%. Besides, in assay [4], the “Malodor reduction (%) furfuryl mercaptan” value turned out to be 47%.

`CC/C=C\CCOC(=O)CCC` [HEXENYL BUTY, CIS-3,]: the “methyl mercaptan suppression (%)” value in assay [1] turned out to be 22%.

`CC(=O)OC1CC(C)CCC1C(C)C` (stereo not drawn) [MENTHYL ACETATE]: the “methyl mercaptan suppression (%)” value in assay [5] is on record as <20%.

`CC1=CC(=O)CC(C)(C)C1` [ISOPHORONE]: the “methyl mercaptan suppression (%)” value in assay [1] worked out at 31%.

`CCC/C=C/CO` [HEXENOL, TRANS-2-, trans-2-hexenol]: the “methyl mercaptan suppression (%)” value in assay [1] is recorded as 29%.

As to `CC(C)=CCCC(C)C=O` (stereo not drawn) [MELONAL], in assay [5], the “methyl mercaptan suppression (%)” value is <20%.
